One assay concerns the target ShHTL7 (Striga hermonthica, UniProt A0A0M3PNA2). On the set-up: method as in PMID 30021834. The settings on record: microscale thermophoresis measurements; cited from earlier work. (Microscale thermophoresis detects binding through changes in fluorescence in a small temperature gradient.)
Another assay has as its target T1, AtD14-AtMAX2 interaction (Arabidopsis thaliana, UniProt Q9SQR3).
T1 construct: the CDS of ShHTL7 and AtD14 were cloned into yeast expression vector pBrigde; expressed in transfected cells; host or cells: yeast AH109
Description: Yeast two-hybrid assay AtD14-AtMAX2. The format is cell-based. Conditions: up to 200 μM. The method, then:
To construct plasmids for yeast two-hybrid assays, the CDS of ShHTL7 and AtD14 were cloned into yeast expression vector pBrigde to generate BD-ShHTL7 and BD-AtD14, and the CDS of ShMAX2, AtMAX2, SMAX1 were cloned into pGADT7 to make Gal4 DNA activation domain (AD) constructs, respectively. Primers used for yeast expression vector construction are listed in Supplementary Table 6. Yeast two-hybrid assays were performed using the Yeastmaker Yeast Transformation System 2 (Clontech). In brief, Yeast AH109 cells were co-transformed with specific bait and prey constructs and coated on selective growth medium SD/-Leu-Trp for 3 days at 30 °C, pick the positive constructs into liquid selective growth medium SD/-Leu-Trp shaking for 36 h at 30 °C. Washed yeast cells three times and diluted, made sure OD600 reached 2.5, then serial 10-fold dilutions of yeast cultures were spotted onto selective growth mediums that were supplemented with different concentrations of rac-GR24 and tested molecules, respectively. All yeast transformants were grown on a selective growth medium at 30 °C for 3 days.

A further assay deals with ShHTL7S95C. The assay is described as follows: Hydrolysis reaction analysis with ShHTL7 S95C mutant. The class given is biochemical, Striga hermonthica. Conditions: Supplementary Fig. 24a. The method, then: (§1) Compounds 4a, (R)- and (S)-4a, 4g-i, and rac-GR24 were dissolved in DMSO and prepared as stock solution ([…]) just before use. A 200 μL of the reaction solution consisting of PBS buffer (pH 7.3), 10 μM samples, and 10 μg recombinant ShHTL7 or its mutants was incubated at 30 °C for 30 min; with the reaction solution (200 μL) containing PBS buffer (pH 7.3) and 10 μM samples as the blank control[40],[52]. Subsequently, the reaction was terminated by adding 200 μL of methanol, and then the reaction mixture was shaken for 10 s and centrifuged at 5310 × g for 60 s. The supernatant was filtered and the remaining amount of samples was analyzed by HPLC. The relative percentages of hydrolysis were obtained by using the amount of compounds in blank control as reference.
Supplementary Fig. 24. a, Relative percentage of hydrolysis of compound 4g by ShHTL7S95A, ShHTL7S95C, and ShHTL7. b, LC-MS analysis of the full-length His-tagged ShHTL7 in native condition. c, LC-MS analysis of the full-length His-tagged ShHTL7S95A in native condition, the mass of 34699 Da (reduction of […] compared with that of ShHTL7) is the peak of ShHTL7S95A. d, LC-MS analysis of full-length His-tagged ShHTL7S95C in native condition, the mass increment of 18 Da […]

Another assay has as its target ShHTL7 T124K (Striga hermonthica, UniProt A0A0M3PNA2). The assay is described as follows: YLG competitive inhibition, ShHTL7 mutant T124K. Conditions: read-out: IC50 (YLG), ShHTL7 mutant, source data average, Supplementary Fig. 20b. The class given is biochemical. The source says:
(§2) To clarify the dynamics of how the catalytic triad affects hydrolysis by ShHTL7, we performed MD simulations to study the differences between (R)-4a and (S)-4a (Supplementary Fig. 21). […] To further characterize our computational models, we performed mutation studies of the key residues in the active pockets that may have interactions with our molecules. Indeed, a number of the mutations of specific residues altered the IC50 values, supporting our simulated models (Supplementary Fig. 20b).
(§3) The excitation and emission wavelengths of YLG are 480 and 520 nm, respectively. We used a fluorescence spectrophotometer (CARY Eclipse) to detect the fluorescence intensity change of YLG during the enzymatic hydrolysis assay process. All the testing compounds and YLG were dissolved in DMSO and prepared as stock solutions just before use. […] The changes of fluorescence at 520 nm of each well were recorded every 1 min for 30 min. Using the reaction mixture without adding enzyme and tested compounds as the background control. After subtracting the background hydrolysis, a linear fluorescence increase in 8 min was used for further inspection. The IC50 values were determined via fitting relative inhibition percentages with the varying concentrations of compounds in Microsoft Excel.
(§4) Supplementary Fig. 20. […]

A further assay concerns the target ShHTL7 T121S (Striga hermonthica, UniProt A0A0M3PNA2, T121S). The assay is described as follows: YLG competitive inhibition, ShHTL7 mutant T121S. The format is biochemical.
Source text: as §2, §3, §4

For another assay, the system named is ShHTL7H246A. Description: Hydrolysis reaction analysis with ShHTL7 H246A mutant. The format is biochemical, Striga hermonthica. The settings on record: Supplementary Fig. 20a. The method, then: as §1
Supplementary Fig. 20. Effect of key amino acid residues on the hydrolysis of ShHTL7 and binding affinity. a, Relative percentage of hydrolysis of compound (S)-4a by ShHTL7S95A, ShHTL7H246A, and ShHTL7. The error bar indicates SD (n = 3 biologically independent experiments). b, Competitive mutants of ShHTL7 inhibitory activity in YLG assay. Data are the means ± SD (n = 3 biologically independent experiments).
(1 picture or pasted object on this page, not shown here)

ShHTL7 T121S, sequence (A0A0M3PNA2 whole entry T121S): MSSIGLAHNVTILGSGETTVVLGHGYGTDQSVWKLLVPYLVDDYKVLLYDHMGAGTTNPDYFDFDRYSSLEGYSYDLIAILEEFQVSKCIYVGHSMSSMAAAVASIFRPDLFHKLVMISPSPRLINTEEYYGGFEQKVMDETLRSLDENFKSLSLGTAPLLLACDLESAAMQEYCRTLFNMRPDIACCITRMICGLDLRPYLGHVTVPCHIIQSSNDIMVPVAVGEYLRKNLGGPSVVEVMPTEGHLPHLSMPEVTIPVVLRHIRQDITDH
ShHTL7 T124K, sequence (A0A0M3PNA2 entry or part of it, stated change not applied): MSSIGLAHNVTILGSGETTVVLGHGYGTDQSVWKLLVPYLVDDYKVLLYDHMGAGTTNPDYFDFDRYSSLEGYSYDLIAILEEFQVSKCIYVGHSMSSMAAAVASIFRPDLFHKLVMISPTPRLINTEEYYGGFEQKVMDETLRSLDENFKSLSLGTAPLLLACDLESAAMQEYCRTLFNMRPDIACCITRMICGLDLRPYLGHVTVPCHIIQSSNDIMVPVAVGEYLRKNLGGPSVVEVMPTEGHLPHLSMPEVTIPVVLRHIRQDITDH
ShHTL7, sequence (A0A0M3PNA2 entry or part of it): as the sequence (A0A0M3PNA2 entry or part of it, stated change not applied) above
T1 sequence (Q9SQR3 whole entry): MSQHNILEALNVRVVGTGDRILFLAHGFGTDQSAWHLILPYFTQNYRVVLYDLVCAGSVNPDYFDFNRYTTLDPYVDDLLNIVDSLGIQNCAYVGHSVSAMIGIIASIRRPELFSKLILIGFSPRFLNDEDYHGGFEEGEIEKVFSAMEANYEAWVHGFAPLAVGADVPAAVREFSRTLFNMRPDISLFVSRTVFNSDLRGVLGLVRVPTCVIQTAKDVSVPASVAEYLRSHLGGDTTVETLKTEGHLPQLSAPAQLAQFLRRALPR

As usually defined, the Kd is the concentration at which binding is half-saturated. Turning to `CC1=C[C@H](O/C=C2/C(=O)O[C@@H]3c4ccccc4C[C@H]23)OC1=O` (racemic) [rac-GR24, reference compound], on ShHTL7, the dissociation constant Kd is 920 ± 10 nM.

Take `CC1=CC(OC(=O)N2CCN(C(=O)COc3ccc(Br)cc3C)CC2)OC1=O` (centres unmarked) [4a]: on AtD14-AtMAX2 interaction, the “induction of AtD14-AtMAX2 interaction (Y2H)” value is “did not promote the interaction”.

As for `CC1=CC(OC(=O)N2CCN(C(=O)COc3ccc(Br)cc3C)CC2)CC1=O` (centres unmarked) [4g], the “relative percentage of hydrolysis by ShHTL7S95C, source data average” value in the assay on ShHTL7S95C came to 4.848%.

As usually defined, the IC50 is the midpoint of a concentration-inhibition curve. As for `CC1=C[C@@H](OC(=O)N2CCN(C(=O)COc3ccc(Br)cc3C)CC2)OC1=O` [(R)-4a], the half-inhibitory concentration (IC50) at ShHTL7 T124K was 1000 nM; at ShHTL7 T121S it was 4900 nM.

For the molecule `CC1=C[C@H](OC(=O)N2CCN(C(=O)COc3ccc(Br)cc3C)CC2)OC1=O` [(S)-4a], the IC50 at ShHTL7 T124K came out at 435 nM; on ShHTL7 T121S, 800 nM. Further, the “relative percentage of hydrolysis by ShHTL7H246A, source data average” value in the assay on ShHTL7H246A was found to be 0.5315%.

Values taken from PMC9271048, “Probing strigolactone perception mechanisms with rationally designed small-molecule agonists stimulating germination of root parasitic weeds” (Nature Communications, 2022).
